What was measured:
[1] = molecular target: T1, Nuclear factor NF-kappa-B complex (Homo sapiens) (UniProt Q00653+P19838+Q04206); experiment: Activation of NF-kappaB in HEK-Blue hNOD2 cells assessed as fold change at 1000 nM incubated for 48 hrs by SEAP reporter assay; type: cell-based; details: filed as activator
[2] = molecular target: T1, Nuclear factor NF-kappa-B complex (Homo sapiens); experiment: Activation of NF-kappaB in HEK-Blue hNOD2 cells assessed as fold change at 100 nM incubated for 48 hrs by SEAP reporter assay; type: cell-based; details: filed as activator
[3] = molecular target: Nucleotide-binding oligomerization domain-containing protein 2 (Homo sapiens, UniProt Q9HC29); experiment: Agonist activity at NOD2 (unknown origin)
[4] = molecular target: T1, Nuclear factor NF-kappa-B complex (Homo sapiens); experiment: Activation of NF-kappaB in HEK-Blue hNOD2 cells assessed as fold change at 10 nM incubated for 48 hrs by SEAP reporter assay; type: cell-based; details: filed as activator
Cavia porcellus [5] = species on record: Cavia porcellus; experiment: Induction of delayed type hypersensitivity in ABA-BSA immunized Hartley Guinea pigs assessed as reduction in skin lesions at 100 ug measured for 24 hrs; type: functional; details: dose 100 µg
Cavia porcellus [6] = species on record: Cavia porcellus; experiment: Induction of delayed type hypersensitivity in ABA-BSA immunized Hartley Guinea pigs assessed as reduction in skin lesions at 100 ug measured for 48 hrs; type: functional; details: dose 100 µg
[7] = molecular target: T1, Nuclear factor NF-kappa-B complex (Homo sapiens); experiment: Activation of NF-KappaB (unknown origin) expressed in HEK293T cells assessed as fold change at 1000 ng incubated for 12 hrs by Renilla luciferase assay; type: cell-based; details: filed as activator
[8] = molecular target: T1, Nuclear factor NF-kappa-B complex (Homo sapiens); experiment: Activation of NF-KappaB (unknown origin) expressed in HEK293T cells assessed as fold change at 100 ng incubated for 12 hrs by Renilla luciferase assay; type: cell-based; details: filed as activator
[9] = molecular target: T1, Nuclear factor NF-kappa-B complex (Homo sapiens); experiment: Activation of NF-KappaB (unknown origin) expressed in HEK293T cells assessed as fold change at 10 ng incubated for 12 hrs by Renilla luciferase assay; type: cell-based; details: filed as activator

T1 sequence (P19838 whole entry, looked up): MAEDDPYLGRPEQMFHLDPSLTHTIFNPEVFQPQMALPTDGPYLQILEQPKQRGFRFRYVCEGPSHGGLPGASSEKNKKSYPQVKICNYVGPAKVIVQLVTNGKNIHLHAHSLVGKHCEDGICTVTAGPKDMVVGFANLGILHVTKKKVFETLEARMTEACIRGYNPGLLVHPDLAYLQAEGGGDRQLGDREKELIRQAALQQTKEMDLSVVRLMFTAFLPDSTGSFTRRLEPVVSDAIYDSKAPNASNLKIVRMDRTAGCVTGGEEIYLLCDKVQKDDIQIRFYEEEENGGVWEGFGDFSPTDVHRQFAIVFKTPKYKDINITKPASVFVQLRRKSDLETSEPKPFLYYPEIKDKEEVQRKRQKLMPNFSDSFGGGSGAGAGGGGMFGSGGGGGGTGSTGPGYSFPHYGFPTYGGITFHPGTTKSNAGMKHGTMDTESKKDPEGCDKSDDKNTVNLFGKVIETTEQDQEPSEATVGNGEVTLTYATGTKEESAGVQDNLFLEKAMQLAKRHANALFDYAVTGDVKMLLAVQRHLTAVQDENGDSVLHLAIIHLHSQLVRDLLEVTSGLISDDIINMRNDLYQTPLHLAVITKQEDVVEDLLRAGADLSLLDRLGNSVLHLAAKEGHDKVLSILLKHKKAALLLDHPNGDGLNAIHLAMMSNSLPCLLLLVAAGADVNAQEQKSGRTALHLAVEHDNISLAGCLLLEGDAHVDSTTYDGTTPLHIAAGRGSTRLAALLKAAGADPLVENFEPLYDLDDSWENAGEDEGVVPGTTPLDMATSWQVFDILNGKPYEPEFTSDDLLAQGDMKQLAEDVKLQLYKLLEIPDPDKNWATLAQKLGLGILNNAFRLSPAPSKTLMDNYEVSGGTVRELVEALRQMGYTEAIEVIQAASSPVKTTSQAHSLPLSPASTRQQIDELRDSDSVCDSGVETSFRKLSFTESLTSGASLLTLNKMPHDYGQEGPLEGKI
T1 sequence (Q00653 whole entry, looked up): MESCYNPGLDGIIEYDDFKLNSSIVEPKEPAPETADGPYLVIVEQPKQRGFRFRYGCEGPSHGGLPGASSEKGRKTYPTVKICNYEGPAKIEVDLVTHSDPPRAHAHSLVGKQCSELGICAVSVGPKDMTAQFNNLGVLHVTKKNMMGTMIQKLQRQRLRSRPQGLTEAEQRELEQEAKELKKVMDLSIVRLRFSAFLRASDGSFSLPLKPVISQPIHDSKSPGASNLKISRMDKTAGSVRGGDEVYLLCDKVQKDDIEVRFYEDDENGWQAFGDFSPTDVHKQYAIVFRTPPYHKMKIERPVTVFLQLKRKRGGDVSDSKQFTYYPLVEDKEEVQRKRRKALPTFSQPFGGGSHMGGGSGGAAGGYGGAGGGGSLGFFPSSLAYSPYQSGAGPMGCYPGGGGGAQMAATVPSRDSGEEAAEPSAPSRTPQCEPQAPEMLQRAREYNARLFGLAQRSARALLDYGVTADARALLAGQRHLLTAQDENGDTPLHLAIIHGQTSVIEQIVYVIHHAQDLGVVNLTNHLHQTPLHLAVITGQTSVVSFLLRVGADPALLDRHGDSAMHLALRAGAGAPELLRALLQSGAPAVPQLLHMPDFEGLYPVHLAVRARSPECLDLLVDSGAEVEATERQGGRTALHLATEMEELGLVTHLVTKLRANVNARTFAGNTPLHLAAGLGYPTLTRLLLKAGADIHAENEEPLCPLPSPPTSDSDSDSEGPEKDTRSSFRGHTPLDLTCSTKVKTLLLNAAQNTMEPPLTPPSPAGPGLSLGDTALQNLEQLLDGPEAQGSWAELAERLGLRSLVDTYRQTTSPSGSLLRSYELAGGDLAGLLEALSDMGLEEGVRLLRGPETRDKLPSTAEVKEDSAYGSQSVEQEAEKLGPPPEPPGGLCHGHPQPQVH
T1 sequence (Q04206 whole entry, looked up): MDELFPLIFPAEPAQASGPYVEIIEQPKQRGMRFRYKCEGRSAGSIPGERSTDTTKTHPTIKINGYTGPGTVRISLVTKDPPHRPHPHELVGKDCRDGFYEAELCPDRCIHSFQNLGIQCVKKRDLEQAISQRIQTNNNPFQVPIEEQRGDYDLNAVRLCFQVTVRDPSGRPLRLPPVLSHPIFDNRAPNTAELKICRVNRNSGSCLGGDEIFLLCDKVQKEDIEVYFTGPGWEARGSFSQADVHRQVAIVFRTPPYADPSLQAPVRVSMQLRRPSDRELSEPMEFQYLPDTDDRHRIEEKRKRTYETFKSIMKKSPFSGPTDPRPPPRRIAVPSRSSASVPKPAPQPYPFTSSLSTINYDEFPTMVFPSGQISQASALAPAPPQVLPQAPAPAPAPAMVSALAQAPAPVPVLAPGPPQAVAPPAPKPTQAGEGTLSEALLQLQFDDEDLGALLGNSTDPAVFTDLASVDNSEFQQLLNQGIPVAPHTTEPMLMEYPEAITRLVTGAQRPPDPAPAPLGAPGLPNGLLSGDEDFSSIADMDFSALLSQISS
Chain of Nucleotide-binding oligomerization domain-containing protein 2 (Q9HC29 whole entry, the tested form may be a part): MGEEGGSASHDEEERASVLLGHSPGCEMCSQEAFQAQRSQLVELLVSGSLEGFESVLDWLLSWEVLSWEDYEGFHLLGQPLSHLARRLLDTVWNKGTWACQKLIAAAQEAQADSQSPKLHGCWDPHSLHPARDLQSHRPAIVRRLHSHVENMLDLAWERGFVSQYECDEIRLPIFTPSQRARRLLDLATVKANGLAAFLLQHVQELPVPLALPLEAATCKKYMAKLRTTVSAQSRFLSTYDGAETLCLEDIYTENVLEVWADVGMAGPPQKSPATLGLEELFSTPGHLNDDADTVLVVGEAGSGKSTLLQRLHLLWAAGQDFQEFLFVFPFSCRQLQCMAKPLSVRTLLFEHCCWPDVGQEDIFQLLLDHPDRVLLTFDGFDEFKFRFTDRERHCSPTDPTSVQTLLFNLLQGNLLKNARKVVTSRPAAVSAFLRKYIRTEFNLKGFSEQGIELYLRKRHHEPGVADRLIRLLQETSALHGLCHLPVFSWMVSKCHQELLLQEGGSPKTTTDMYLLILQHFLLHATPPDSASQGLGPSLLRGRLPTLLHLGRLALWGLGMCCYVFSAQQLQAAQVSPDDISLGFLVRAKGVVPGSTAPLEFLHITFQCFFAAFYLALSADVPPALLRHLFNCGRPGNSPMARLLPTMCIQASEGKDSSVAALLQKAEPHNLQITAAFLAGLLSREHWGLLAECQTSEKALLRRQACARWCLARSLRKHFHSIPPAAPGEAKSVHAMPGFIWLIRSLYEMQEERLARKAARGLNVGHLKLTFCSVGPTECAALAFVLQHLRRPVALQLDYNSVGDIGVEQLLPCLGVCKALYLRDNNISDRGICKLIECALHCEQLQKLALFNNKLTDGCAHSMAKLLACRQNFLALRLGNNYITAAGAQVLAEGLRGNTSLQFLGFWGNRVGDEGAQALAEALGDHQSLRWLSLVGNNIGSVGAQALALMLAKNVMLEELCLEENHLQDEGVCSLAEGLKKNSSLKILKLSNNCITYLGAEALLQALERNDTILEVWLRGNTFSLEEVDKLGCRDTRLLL

| fold change (FC) [1] | fold change (FC) [2] | EC50 [3] | fold change (FC) [4] | fold change (FC) [7] | fold change (FC) [8] | fold change (FC) [9] | Structure (SMILES) | Activity (Cavia porcellus [5]) | Activity (Cavia porcellus [6]) |
| --- | --- | --- | --- | --- | --- | --- | --- | --- | --- |
| 6.55 | 4 | 203 nM | 1.7 | – | – | – | CC(=O)N[C@H]1C(O)O[C@H](CO)[C@@H](O)[C@@H]1O[C@H](C)C(=O)N[C@@H](C)C(=O)N[C@H](CCC(=O)O)C(N)=O (some centres not stated) [MURAMYL DIPEPTIDE] | 21 mm | 19 mm |
| – | – | – | – | 1.05 | 1.3 | 1.1 | CC(=O)N[C@@H]1[C@@H](O[C@H](C)C(=O)N(C)[C@H](C)C(=O)N[C@H](CCC(=O)O)C(N)=O)[C@H](O)[C@@H](CO)O[C@H]1O | – | – |
| – | – | – | – | 1.5 | 1.3 | 1.4 | CC(=O)N[C@@H]1[C@@H](O[C@H](C)C(=O)N2CCC[C@H]2C(=O)N[C@H](CCC(=O)O)C(N)=O)[C@H](O)[C@@H](CO)O[C@H]1O | – | – |

— ChEMBL document CHEMBL5550132, “Structure-activity relationship in NOD2 agonistic muramyl dipeptides” (Eur J Med Chem, 2024)
